From ChEMBL document CHEMBL6109161, “Novel Pyrazolo[1,5-a]pyrimidine-3,5-diamines as nSMase2 Inhibitors” (ACS Med Chem Lett, 2025)
pIC50: −log10 of the molar value.

assay: Inhibition of recombinant human neutral sphingomyelinase 2 using […] as substrate in presence of alkaline phosphatase, choline oxidase and horseradish peroxidase by fluorescence-based coupled assay

| SMILES | pIC50 |
| --- | --- |
| CC1CCCN1c1ccn2ncc(N(C)C)c2n1 (stereo unspecified) | 7.15 |
| CN(C)c1cnn2ccc(N3CCOCC3)nc12 | 7.22 |
| COc1ccc(CNc2ccn3ncc(N(C)C)c3n2)cc1OC | 7.52 |

Further lines, results first:

| pIC50 | SMILES |
| --- | --- |
| 7.10 | CN(C)c1cnn2ccc(NCc3ccccc3)nc12 |
| 7.40 | CN(C)c1cnn2ccc(NCc3ccc(C(F)(F)F)cc3)nc12 |
| 7.00 | CN(C)c1ccc(CNc2ccn3ncc(N(C)C)c3n2)cc1 |
